Patent EP4755888A1 (ILAb Co., Ltd., priority 2023, dated 2025)

Columns and labels:
[1] = target: T1, PD-L1 expressed on the cell surface (MC38 hPD-L1) (Homo sapiens, UniProt Q9NZQ7); test: Internalization of cell surface PD-L1, flow cytometry with fluorescent staining; type: cell-based; settings: MC38 hPD-L1 cells, 1 µM, 4 hours; untreated 90% to 99%
T1 construct: expressed in transfected cells; host or cells: MC38 mouse colon cancer cell line expressing human PD-L1
Description: In order to evaluate the internalization of cell surface PD-L1 induced by the compounds of the present invention synthesized according to the above Preparation Examples, a flow cytometry experiment using fluorescent staining was conducted as described below.
Specifically, a mouse colon cancer cell line expressing human PD-L1 (MC38 hPD-L1) was seeded into a 24-well plate at a density of 5 x 10^5 cells per well, followed by treatment with Compounds 206 to 227 at a concentration of 1 µM and incubation for 4 hours. After 4 hours, the compound-treated MC38 hPD-L1 cells were collected and stained with PE anti-hPD-L1 fluorecence at room temperature for 30 minutes. The rate of PD-L1 expression on the cell surface was then quantified using flow cytometry.

[2] = target: PD-1/PD-L1 (Homo sapiens, UniProt Q9NZQ7); test: TR-FRET PD-1/PD-L1 binding inhibition at the molecular level (free proteins); settings: Tag1-PD-L1 and Tag2-PD-1 proteins, twelve concentrations from 200 nM, 2 hours at room temperature, read-out: FRET assay (IC50)
Summary of the method: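 HTRF read-out at 665/620 nm after 2 h at room temperature. Detection used anti-Tag1 Eu cryptate plus anti-Tag2 XL665 antibodies. Tagged PD-L1 and PD-1 proteins were pre-mixed with compound across twelve […] 1:2 dilutions starting at 200 nM.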

PD-1/PD-L1, sequence (Q9NZQ7 19-238 limits assumed): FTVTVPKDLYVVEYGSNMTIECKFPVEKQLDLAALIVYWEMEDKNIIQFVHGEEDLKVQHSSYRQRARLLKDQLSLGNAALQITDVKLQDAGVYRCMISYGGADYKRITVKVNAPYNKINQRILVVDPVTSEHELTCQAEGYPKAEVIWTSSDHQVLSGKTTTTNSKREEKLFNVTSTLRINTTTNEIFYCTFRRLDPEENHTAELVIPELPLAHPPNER
T1 sequence (Q9NZQ7 19-290): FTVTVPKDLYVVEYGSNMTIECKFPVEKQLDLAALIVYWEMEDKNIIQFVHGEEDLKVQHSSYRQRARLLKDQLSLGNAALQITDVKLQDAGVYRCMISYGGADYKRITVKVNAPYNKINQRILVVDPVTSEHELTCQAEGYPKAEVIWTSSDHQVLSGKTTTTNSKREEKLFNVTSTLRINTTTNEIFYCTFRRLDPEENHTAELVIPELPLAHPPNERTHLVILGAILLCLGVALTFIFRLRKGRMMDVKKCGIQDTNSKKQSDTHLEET

| Cell surface PD-L1 expression level (%) [1] [%] | IC50 [2] [nM] | SMILES |
| --- | --- | --- |
| 70.8 | < 10 | O=C1CC[C@@H](CN[C@H]2CCCn3nc(C(=O)Nc4cccc(-c5cccc(NC(=O)c6ccc(CNCCO)cn6)c5Cl)c4Cl)cc32)N1 [Compound 224, (S)-N-(2,2'-dichloro-3'-(5-(((2-hydroxyethyl)amino)methyl)picolinamido)-[1,1'-biphenyl]-3-yl)-4-((((S)-5-oxopyrrolidin-2-yl)methyl)amino)-4,5,6,7-tetrahydropyrazolo[1,5-a]pyridine-2-carboxamide] |
| 88.7 | < 10 | Cc1c(NC(=O)c2ccc(CN3CC[C@@H](O)C3)cn2)cccc1-c1cccc(NC(=O)c2cc3n(n2)CCC[C@H]3NCCO)c1C [Compound 215, (R)-4-((2-hydroxyethyl)amino)-N-(3'-(5-(((R)-3-hydroxypyrrolidin-1-yl)methyl)picolinamido)-2,2'-dimethyl-[1,1'-biphenyl]-3-yl)-4,5,6,7-tetrahydropyrazolo[1,5-a]pyridine-2-carboxamide] |
| 41.3 | < 10 | O=C(O)CN[C@@H]1CCCn2nc(C(=O)Nc3cccc(-c4cccc(NC(=O)c5ccc(CNCCO)cn5)c4Cl)c3Cl)cc21 [Compound 221, (R)-2-((2-((2,2'-dichloro-3'-(5-(((2-hydroxyethyl)amino)methyl)picolinamido)-[1,1'-biphenyl]-3-yl)carbamoyl)-4,5,6,7-tetrahydropyrazolo[1,5-a]pyridin-4-yl)amino)acetic acid] |
| 66.4 | 10 to 100 | O=C(O)CN[C@@H]1CCCn2nc(C(=O)Nc3cccc(-c4cccc(NC(=O)c5ccc(CN6CC[C@@H](O)C6)cn5)c4Cl)c3Cl)cc21 [Compound 223, 2-(((R)-2-((2,2'-dichloro-3'-(5-(((R)-3-hydroxypyrrolidin-1-yl)methyl)picolinamido)-[1,1'-biphenyl]-3-yl)carbamoyl)-4,5,6,7-tetrahydropyrazolo[1,5-a]pyridin-4-yl)amino)acetic acid] |
| 36.5 | < 10 | O=C(O)CN[C@@H]1CCCn2nc(C(=O)Nc3cccc(-c4cccc(Nc5nccc6cc(CN7CC[C@@H](O)C7)cnc56)c4Cl)c3Cl)cc21 [Compound 219, 2-(((R)-2-((2,2'-dichloro-3'-((3-(((R)-3-hydroxypyrrolidin-1-yl)methyl)-1,7-naphthyridin-8-yl)amino)-[1,1'-biphenyl]-3-yl)carbamoyl)-4,5,6,7-tetrahydropyrazolo[1,5-a]pyridin-4-yl)amino)acetic acid] |
| 75.3 | < 10 | Cc1c(NC(=O)c2cc3n(n2)CCC[C@H]3N2CC[C@@H](C(=O)O)C2)cccc1-c1cccc(Nc2nc(C(F)F)nc3cc(CN4CC[C@@H](O)C4)cnc23)c1C [Compound 211, (R)-1-((R)-2-((3'-((2-(difluoromethyl)-7-(((R)-3-hydroxypyrrolidin-1-yl)methyl)pyrido[3,2-d]pyrimidin-4-yl)amino)-2,2'-dimethyl-[1,1'-biphenyl]-3-yl)carbamoyl)-4,5,6,7-tetrahydropyrazolo[1,5-a]pyridin-4-yl)pyrrolidine-3-carboxylic acid] |
| 71.0 | < 10 | O=C(Nc1cccc(-c2cccc(NC(=O)c3cc4n(n3)CCC[C@H]4N3CC[C@@H](C(=O)O)C3)c2Cl)c1Cl)c1ccc(CNCCO)cn1 [Compound 209, (R)-1-((R)-2-((2,2'-dichloro-3'-(5-(((2-hydroxyethyl)amino)methyl)picolinamido)-[1,1'-biphenyl]-3-yl)carbamoyl)-4,5,6,7-tetrahydropyrazolo[1,5-a]pyridin-4-yl)pyrrolidine-3-carboxylic acid] |
| 80.8 | 10 to 100 | O=C(Nc1cccc(-c2cccc(Nc3nccc4cc(CN5CC[C@H](O)C5)cnc34)c2Cl)c1Cl)c1cc2n(n1)CCC[C@@H]2N1CCC(C(=O)O)CC1 [Compound 226, 1-((S)-2-((2,2'-dichloro-3'-((3-(((S)-3-hydroxypyrrolidin-1-yl)methyl)-1,7-naphthyridin-8-yl)amino)-[1,1'-biphenyl]-3-yl)carbamoyl)-4,5,6,7-tetrahydropyrazolo[1,5-a]pyridin-4-yl)piperidine-4-carboxylic acid] |
|  | 10 to 100 | CN[C@@H]1CCCn2nc(C(=O)Nc3cccc(-c4cccc(Nc5nc(C(F)F)nc6cc(CN7CC[C@@H](O)C7)cnc56)c4Cl)c3Cl)cc21 [Compound 355, (R)-N-(2,2'-dichloro-3'-((2-(difluoromethyl)-7-(((R)-3-hydroxypyrrolidin-1-yl)methyl)pyrido[3,2-d]pyrimidin-4-yl)amino)-[1,1'-biphenyl]-3-yl)-4-(methylamino)-4,5,6,7-tetrahydropyrazolo[1,5-a]pyridine-2-carboxamide] |
|  | 10 to 100 | O=C(Nc1cccc(-c2cccc(Nc3nc(C(F)F)nc4cc(CN5CC(F)C5)cnc34)c2Cl)c1Cl)c1cc2n(n1)CCC[C@@H]2N1CCC(O)CC1 [Compound 269, (S)-N-(2,2'-dichloro-3'-((2-(difluoromethyl)-7-((3-fluoroazetidin-1-yl)methyl)pyrido[3,2-d]pyrimidin-4-yl)amino)-[1,1'-biphenyl]-3-yl)-4-(4-hydroxypiperidin-1-yl)-4,5,6,7-tetrahydropyrazolo[1,5-a]pyridine-2-carboxamide] |

The remaining lines, values behind:

| SMILES | Cell surface PD-L1 expression level (%) [1] [%] | IC50 [2] [nM] |
| --- | --- | --- |
| Cc1c(NC(=O)c2cc3n(n2)CCCC3O)cccc1-c1cccc(NC(=O)c2cc3n(n2)CCCC3O)c1C (centres unmarked) [Compound 2-1, N,N'-(2,2'-dimethyl-[1,1'-biphenyl]-3,3'-diyl)bis(4-hydroxy-4,5,6,7-tetrahydropyrazolo[1,5-a]pyridine-2-carboxamide)] |  | < 10 |
| CC(=O)NCCNC1CCCn2nc(C(=O)Nc3cccc(-c4cccc(Nc5nc(C(F)F)nc6cc(CN7CC[C@@H](O)C7)cnc56)c4C)c3C)cc21 (stereo partly drawn) [Compound 130, 4-((2-acetamidoethyl)amino)-N-(3'-((2-(difluoromethyl)-7-(((R)-3-hydroxypyrrolidin-1-yl)methyl)pyrido[3,2-d]pyrimidin-4-yl)amino)-2,2'-dimethyl-[1,1'-biphenyl]-3-yl)-4,5,6,7-tetrahydropyrazolo[1,5-a]pyridine-2-carboxamide] |  | 10 to 100 |
| Cc1c(NC(=O)c2cc3n(n2)CCCC3N2CCC(C(=O)O)CC2)cccc1-c1cccc(Nc2nccc3cc(CN4CC[C@@H](O)C4)cnc23)c1Cl (stereo partly drawn) [Compound 44, 1-(2-((2'-chloro-3'-((3-(((R)-3-hydroxypyrrolidin-1-yl)methyl)-1,7-naphthyridin-8-yl)amino)-2-methyl-[1,1'-biphenyl]-3-yl)carbamoyl)-4,5,6,7-tetrahydropyrazolo[1,5-a]pyridin-4-yl)piperidine-4-carboxylic acid] |  | 10 to 100 |
| O=C(O)CNC1CCCn2nc(C(=O)Nc3cccc(-c4cccc(NC(=O)c5ncc(CNCCO)cc5F)c4Cl)c3Cl)cc21 (centres unmarked) [Compound 200, 2-((2-((2,2'-dichloro-3'-(3-fluoro-5-(((2-hydroxyethyl)amino)methyl)picolinamido)-[1,1'-biphenyl]-3-yl)carbamoyl)-4,5,6,7-tetrahydropyrazolo[1,5-a]pyridin-4-yl)amino)acetic acid] |  | < 10 |
| CC(C)(NC1CCCn2nc(C(=O)Nc3cccc(-c4cccc(Nc5nc(C(F)F)nc6cc(CN7CC[C@@H](O)C7)cnc56)c4Cl)c3Cl)cc21)C(=O)O (stereo partly drawn) [Compound 146, 2-((2-((2,2'-dichloro-3'-((2-(difluoromethyl)-7-(((R)-3-hydroxypyrrolidin-1-yl)methyl)pyrido[3,2-d]pyrimidin-4-yl)amino)-[1,1'-biphenyl]-3-yl)carbamoyl)-4,5,6,7-tetrahydropyrazolo[1,5-a]pyridin-4-yl)amino)-2-methylpropanoic acid] |  | < 10 |
| COc1nc(-c2cccc(-c3cccc(-c4cc5n(n4)CCCC5N4CCC(C(=O)O)CC4)c3C)c2C)cnc1CNC[C@@H]1CCC(=O)N1 (stereo partly drawn) [Compound 167, 1-(2-(3'-(6-methoxy-5-(((((S)-5-oxopyrrolidin-2-yl)methyl)amino)methyl)pyrazin-2-yl)-2,2'-dimethyl-[1,1'-biphenyl]-3-yl)-4,5,6,7-tetrahydropyrazolo[1,5-a]pyridin-4-yl)piperidine-4-carboxylic acid] |  | 10 to 100 |
| O=C(Nc1cccc(-c2cccc(NC(=O)c3cc4n(n3)CCCC4NCCO)c2Cl)c1Cl)c1ccc(CNCCO)cn1 (centres unmarked) [Compound 83, N-(2,2'-dichloro-3'-(5-(((2-hydroxyethyl)amino)methyl)picolinamido)-[1,1'-biphenyl]-3-yl)-4-((2-hydroxyethyl)amino)-4,5,6,7-tetrahydropyrazolo[1,5-a]pyridine-2-carboxamide] |  | < 10 |
| O=C(Nc1cccc(-c2cccc(NC(=O)c3cc4n(n3)CCCC4N3CCC(C(=O)O)CC3)c2Cl)c1Cl)c1ccc(CNCCO)cn1 (centres unmarked) [Compound 88, 1-(2-((2,2'-dichloro-3'-(5-(((2-hydroxyethyl)amino)methyl)picolinamido)-[1,1'-biphenyl]-3-yl)carbamoyl)-4,5,6,7-tetrahydropyrazolo[1,5-a]pyridin-4-yl)piperidine-4-carboxylic acid] |  | < 10 |
